Laboratory results taken from publication PMC3522794 (Nature chemical biology, 2012).

Experiments:
HCK^Y527F = HCK^Y527F (Homo sapiens, UniProt P08631, Y522F); assay: Pull-down assay to determine SH3 domain accessibility; format: binding; conditions: inhibitor 5 µM (saturating), kinase 100 nM; mean ± SEM, n=3
[1] = target: SNAP-tag-polyproline (PP) peptide fusion (…); assay: pull-down

Row | Compound | Percent kinase eluted (retained on PP ligand beads), HCK^Y527F (HCK^Y527F) | percent of loaded kinase retained on the beads [1]
1 | Cc1nc(Nc2ncc(C(=O)Nc3c(C)cccc3Cl)s2)cc(N2CCN(CCO)CC2)n1 [Dasatinib, dasatinib] | 27% | –
2 | HCK^Y527F (HCK residues 84–531, Y527F, SRC residue numbering) (enzyme) | – | 27%
